Measured values reported in patent US20240102057A1, “METHODS AND COMPOSITIONS USEFUL FOR THE PRODUCTION OF 4-VINYLPHENOL” (THE REGENTS OF THE UNIVERSITY OF CALIFORNIA, priority 2022, published 2024).

Legend:
Cg and Cg phdA- strains = test: Growth (cell density) in tryptic soy broth supplemented with 4VP or CA; assay type: cell-based, Corynebacterium glutamicum; conditions: 24 h, FIG. 1a, b
Protocol: (§1) To test whether the PAD strains were able to convert CA to 4VP and evaluate their tolerance to different concentrations of substrate and product, growth experiments were performed in tryptic soy broth supplemented with 0.25 or 0.5 g/L of 4VP, or 1, 5 or 10 g/L of CA. This rich medium was used to provide all the organisms with glucose and amino acids for growth and cell maintenance and allow for continuous PAD protein production during the 4VP production process. The bacterial cell density was measured at the time of inoculation and after 24 h of incubation, and PAD expression was induced at the beginning of the cultivations.
(§2) Cultivations were performed in 48-well flat bottom clear plates (Corning, USA) when an organic overlay was not added, in 48-well FlowerPlates (m2p, Germany) when an overlay was added to rich medium, and in 14 mL round-bottom plastic tubes for lignin liquors with an overlay. Seed cultures of all strains listed in Table 1 were started by inoculating cells from agar plates into tubes with 5 mL of tryptic soy broth and incubating at 30° C. with vigorous shaking for 12 h. For the experiments in the clear plates, inocula were prepared by mixing 1 mL of the seed cultures with 9 mL of fresh tryptic soy broth and incubated for 8 h. […] The optical density at 595 nm was measured using a DTX880 plate reader (Beckton-Coulter, USA).

[1] = Distribution between aqueous phase and organic overlay in biphasic cultivations (HPLC); assay type: physicochemical
From the text: One example is the extraction of 4VP from the aqueous phase with octanol in a continuous flow-bed reactor containing immobilized E. coli cells. […] Therefore, we compared the performance of octanol to other mid-chain fatty alcohols with slightly longer alkane chains, decanol and undecanol, when added as overlays to the cultivation media (20% of the aqueous phase volume). To obtain high product concentrations and identify any limitations to the amount of 4VP that can be extracted with the overlays, the four recombinant strains were incubated in the presence of 25 or 75 g/L of CA.
The lignocellulose-derived CA was used to cultivate the 4VP producing strains. […] However, this culture system is not amenable for repeated sampling of aqueous and organic phases to quantify metabolites or for monitoring cell growth in the presence of overlays and dark lignin liquors. Therefore, the incubations in CA-rich liquors were performed in culture tubes in presence of an undecanol overlay, and the OD, CA and 4VP concentrations were measured at 0, 12 and 24 h after inoculation. […]
CA and 4VP were quantified by HPLC in samples taken from the aqueous and organic phases of the cultivations or lignin liquors after diluting with water (aqueous samples) or pure acetonitrile (organic samples). […]

all Bacillus species = test: Growth (cell density) in tryptic soy broth supplemented with 4VP or CA; assay type: cell-based, Bacillus subtilis, Bacillus amyloliquefaciens; conditions: 24 h, FIG. 1g-i
Protocol: as §1, §2

microbes = conditions: literature report [3]; cited from earlier work
E. coli = conditions: cited from earlier work; for toxicity of organic solvent to E. coli: literature reports [10, 16, 17, 25]
PAD enzyme = conditions: literature reports [10, 16, 17, 25]; cited from earlier work
all tested organisms = test: Growth (cell density) in tryptic soy broth supplemented with 4VP or CA; assay type: cell-based, E. coli, B. subtilis, C. glutamicum, B. amyloliquefaciens; conditions: tryptic soy broth with 0.25 or 0.5 g/L 4VP, 24 h
Protocol: as §1, §2

E. coli (Ec) = test: as above; assay type: cell-based, Escherichia coli; conditions: Ec and Ec PAD, 24 h, FIG. 1c, f
Protocol: as §1, §2

SMILES: O=C(O)/C=C/c1ccc(O)cc1 [CA, p-coumaric acid]
- CA concentration in the presence of which strains are able to grow (tolerance) (Cg and Cg phdA- strains): up to 10 g/L
- share of CA not consumed found in the aqueous phase ([1]; octanol, decanol or undecanol overlay (20% of aqueous volume), tryptic soy broth with 25 or 75 g/L CA): more than 90%
- CA concentration above which strains are unable to grow (all Bacillus species): more than 1 g/L

SMILES: CCCCCCCCO [octanol]
- toxicity of solvent to microbes (microbes): significant toxicity
- toxicity of organic solvent to E. coli (E. coli): significant toxicity
- effect of organic solvent on PAD enzyme activity (PAD enzyme): inhibition

SMILES: C=Cc1ccc(O)cc1 [4VP, 4-vinylphenol]
- share of product extracted in the organic phase ([1]; undecanol overlay, lignin liquors from corn stover residue): 97%
- toxicity of 4VP (all tested organisms): very toxic
- toxicity to E. coli relative to CA (E. coli; literature report [12]): significantly more toxic to E. coli than CA
- 4VP concentration displaying growth inhibition (E. coli (Ec)): 0.25 g/L

SMILES: CCCCCC [hexane]
- toxicity of organic solvent to E. coli (E. coli): significant toxicity
- effect of organic solvent on PAD enzyme activity (PAD enzyme): inhibition
